Measured values: patent US20170190671A1, “BIS(ARYL)CATECHOL DERIVATIVES AS HERBICIDES” (E I DU PONT DE NEMOURS AND COMPANY, priority 2014, published 2017)

Assays:
Experiment in all cases: Test C preemergence
Format in all cases: in vivo
corn (Zea mays) = conditions: Zea mays, pre-emergence, 336 h, preemergence, scale 0 to 100; for Corn plant response rating (crop injury, 0 = no effect, 100 = complete kill) at 31 g/ha: 31 g ai/ha; for Corn plant response rating (crop injury, 0 = no effect, 100 = complete kill) at 62 g/ha: 62 g ai/ha; for Corn plant response rating (crop injury, 0 = no effect, 100 = complete kill) at 125 g/ha: 125 g ai/ha
In short: (§1)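 Steps: plant seeds in loam-sand soil and treat preemergence, or grow plants in peat-based medium to 2-18 cm and spray; compound formulated in non-phytotoxic solvent/surfactant; hold in greenhouse 13-15 days; score visually versus controls from 0 (no effect) to 100 (complete control).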

[1] = test system: oilseed rape (Brassica napus); conditions: Brassica napus, pre-emergence, preemergence, scale 0 to 100, read-out: Plant response rating, Oilseed Rape; for plant injury at 31 g/ha: 31 g ai/ha; for plant injury at 62 g/ha: 62 g ai/ha; for plant injury at 125 g/ha: 125 g ai/ha; for plant injury at 250 g/ha: 250 g ai/ha
In short: as §1

[2] = test system: yellow nutsedge (Cyperus esculentus); conditions: Cyperus, pre-emergence, 336 h, preemergence, scale 0 to 100, read-out: Plant response rating, Nutsedge, Yellow; for pest or weed control at 31 g/ha: 31 g ai/ha; for pest or weed control at 62 g/ha: 62 g ai/ha; for pest or weed control at 125 g/ha: 125 g ai/ha
In short: as §1

[3] = test system: waterhemp (common waterhemp, Amaranthus rudis); conditions: Amaranthus tuberculatus, pre-emergence, preemergence, scale 0 to 100, read-out: Plant response rating, Waterhemp; for pest or weed control at 31 g/ha: 31 g ai/ha; for pest or weed control at 62 g/ha: 62 g ai/ha; for pest or weed control at 125 g/ha: 125 g ai/ha; for pest or weed control at 250 g/ha: 250 g ai/ha
In short: as §1

[4] = test system: pigweed (Amaranthus retroflexus); conditions: Amaranthus retroflexus, pre-emergence, 336 h, preemergence, scale 0 to 100, read-out: Plant response rating, Pigweed; for pest or weed control at 31 g/ha: 31 g ai/ha; for pest or weed control at 62 g/ha: 62 g ai/ha; for pest or weed control at 125 g/ha: 125 g ai/ha
In short: as §1

[5] = test system: ragweed (common ragweed, Ambrosia elatior); conditions: Ambrosia artemisiifolia, pre-emergence, 336 h, preemergence, scale 0 to 100, read-out: Plant response rating, Ragweed; for pest or weed control at 31 g/ha: 31 g ai/ha; for pest or weed control at 62 g/ha: 62 g ai/ha; for pest or weed control at 125 g/ha: 125 g ai/ha; for pest or weed control at 250 g/ha: 250 g ai/ha
In short: as §1

[6] = test system: giant foxtail (Setaria faberii); conditions: Setaria faberi, pre-emergence, 336 h, preemergence, scale 0 to 100, read-out: Plant response rating, Foxtail, Giant; for pest or weed control at 31 g/ha: 31 g ai/ha; for pest or weed control at 62 g/ha: 62 g ai/ha; for pest or weed control at 125 g/ha: 125 g ai/ha
In short: as §1

[7] = test system: blackgrass (Alopecurus myosuroides); conditions: Alopecurus myosuroides, pre-emergence, 336 h, preemergence, scale 0 to 100, read-out: Plant response rating, Blackgrass; for pest or weed control at 31 g/ha: 31 g ai/ha; for pest or weed control at 62 g/ha: 62 g ai/ha; for pest or weed control at 125 g/ha: 125 g ai/ha
In short: as §1

soybean (Glycine max) = conditions: Glycine max, pre-emergence, preemergence, scale 0 to 100, read-out: Plant response rating, Soybean; for plant injury at 31 g/ha: 31 g ai/ha; for plant injury at 62 g/ha: 62 g ai/ha; for plant injury at 125 g/ha: 125 g ai/ha; for plant injury at 250 g/ha: 250 g ai/ha
In short: as §1

[8] = test system: large (Lg) crabgrass (Digitaria sanguinalis); conditions: Digitaria sanguinalis, pre-emergence, 336 h, preemergence, scale 0 to 100, read-out: Plant response rating, Crabgrass, Large; for pest or weed control at 31 g/ha: 31 g ai/ha; for pest or weed control at 62 g/ha: 62 g ai/ha; for pest or weed control at 125 g/ha: 125 g ai/ha
In short: as §1

[9] = test system: winter wheat (Triticum aestivum); conditions: Triticum aestivum, pre-emergence, 336 h, preemergence, scale 0 to 100, read-out: Plant response rating, Wheat; for plant injury at 31 g/ha: 31 g ai/ha; for plant injury at 62 g/ha: 62 g ai/ha; for plant injury at 125 g/ha: 125 g ai/ha; for plant injury at 250 g/ha: 250 g ai/ha
In short: as §1

[10] = test system: lambsquarters (Chenopodium album); conditions: Chenopodium album, pre-emergence, 336 h, preemergence, scale 0 to 100, read-out: Plant response rating, Lambsquarters; for pest or weed control at 31 g/ha: 31 g ai/ha; for pest or weed control at 62 g/ha: 62 g ai/ha; for pest or weed control at 125 g/ha: 125 g ai/ha
In short: as §1

[11] = test system: morningglory (Ipomoea coccinea); conditions: Ipomoea, pre-emergence, 336 h, preemergence, scale 0 to 100, read-out: Plant response rating, Morningglory; for pest or weed control at 31 g/ha: 31 g ai/ha; for pest or weed control at 62 g/ha: 62 g ai/ha; for pest or weed control at 125 g/ha: 125 g ai/ha
In short: as §1

[12] = test system: Italian ryegrass (Lolium multiflorum); conditions: Lolium multiflorum, pre-emergence, 336 h, preemergence, scale 0 to 100, read-out: Plant response rating, Ryegrass, Italian; for pest or weed control at 31 g/ha: 31 g ai/ha; for pest or weed control at 62 g/ha: 62 g ai/ha; for pest or weed control at 125 g/ha: 125 g ai/ha; for pest or weed control at 250 g/ha: 250 g ai/ha
In short: as §1

[13] = test system: velvetleaf (Abutilon theophrasti); conditions: Abutilon theophrasti, pre-emergence, preemergence, scale 0 to 100, read-out: Plant response rating, Velvetleaf; for pest or weed control at 31 g/ha: 31 g ai/ha; for pest or weed control at 62 g/ha: 62 g ai/ha; for pest or weed control at 125 g/ha: 125 g ai/ha; for pest or weed control at 250 g/ha: 250 g ai/ha
In short: as §1

Clc1cnc(Oc2cccc(Cl)c2Oc2ncc(Br)cn2)nc1 [Compound 17, 5-bromo-2-[2-chloro-6-[(5-chloro-2-pyrimidinyl)oxy]phenoxy]pyrimidine]
60%: pest or weed control at 31 g/ha [7] | pest or weed control at 62 g/ha [11]
100%: plant injury at 125 g/ha [1] | pest or weed control at 31 g/ha [3] | pest or weed control at 62 g/ha [3] | pest or weed control at 125 g/ha [3] | pest or weed control at 250 g/ha [3] | pest or weed control at 31 g/ha [4] | pest or weed control at 62 g/ha [4] | pest or weed control at 125 g/ha [4] | pest or weed control at 62 g/ha [6] | pest or weed control at 125 g/ha [6] | pest or weed control at 31 g/ha [8] | pest or weed control at 62 g/ha [8] | pest or weed control at 125 g/ha [8] | pest or weed control at 125 g/ha [13] | pest or weed control at 250 g/ha [13]
55%: Corn plant response rating (crop injury, 0 = no effect, 100 = complete kill) at 125 g/ha (corn (Zea mays)) | pest or weed control at 125 g/ha [2] | pest or weed control at 125 g/ha [5]
98%: plant injury at 250 g/ha [1] | pest or weed control at 125 g/ha [11]
20%: plant injury at 62 g/ha (soybean (Glycine max)) | pest or weed control at 31 g/ha [12]
95%: pest or weed control at 31 g/ha [6] | pest or weed control at 125 g/ha [7] | pest or weed control at 125 g/ha [10] | pest or weed control at 250 g/ha [12] | pest or weed control at 62 g/ha [13]
25%: pest or weed control at 62 g/ha [5]
40%: plant injury at 125 g/ha [9] | pest or weed control at 31 g/ha [11] | pest or weed control at 62 g/ha [12]
15%: Corn plant response rating (crop injury, 0 = no effect, 100 = complete kill) at 62 g/ha (corn (Zea mays))
0%: Corn plant response rating (crop injury, 0 = no effect, 100 = complete kill) at 31 g/ha (corn (Zea mays)) | pest or weed control at 31 g/ha [2] | pest or weed control at 31 g/ha [5] | plant injury at 31 g/ha [9]
65%: pest or weed control at 31 g/ha [13]
45%: plant injury at 125 g/ha (soybean (Glycine max)) | plant injury at 62 g/ha [9]
85%: plant injury at 31 g/ha [1] | pest or weed control at 250 g/ha [5] | plant injury at 250 g/ha [9] | pest or weed control at 31 g/ha [10]
90%: plant injury at 62 g/ha [1] | pest or weed control at 62 g/ha [7] | pest or weed control at 62 g/ha [10] | pest or weed control at 125 g/ha [12]
70%: plant injury at 250 g/ha (soybean (Glycine max))
5%: plant injury at 31 g/ha (soybean (Glycine max))
10%: pest or weed control at 62 g/ha [2]

Fc1cnc(Oc2c(Cl)cccc2Oc2ncc(Cl)cn2)nc1 [Compound 18, 5-chloro-2-[5-chloro-6-[(5-fluoro-2-pyrimidinyl)oxy]phenoxy]pyrimidine]
10%: Corn plant response rating (crop injury, 0 = no effect, 100 = complete kill) at 31 g/ha (corn (Zea mays)) | pest or weed control at 31 g/ha [11]
95%: pest or weed control at 125 g/ha [5] | pest or weed control at 250 g/ha [5] | pest or weed control at 125 g/ha [7] | pest or weed control at 62 g/ha [10] | pest or weed control at 125 g/ha [10] | pest or weed control at 250 g/ha [12]
85%: pest or weed control at 31 g/ha [5] | plant injury at 250 g/ha [9] | pest or weed control at 31 g/ha [10] | pest or weed control at 125 g/ha [12] | pest or weed control at 31 g/ha [13]
15%: pest or weed control at 31 g/ha [7] | plant injury at 62 g/ha [9]
80%: plant injury at 62 g/ha (soybean (Glycine max))
60%: Corn plant response rating (crop injury, 0 = no effect, 100 = complete kill) at 125 g/ha (corn (Zea mays)) | plant injury at 31 g/ha (soybean (Glycine max)) | pest or weed control at 62 g/ha [11]
25%: pest or weed control at 62 g/ha [2] | pest or weed control at 125 g/ha [2]
0%: pest or weed control at 31 g/ha [2] | plant injury at 31 g/ha [9]
70%: plant injury at 125 g/ha [9] | pest or weed control at 125 g/ha [11] | pest or weed control at 62 g/ha [12]
30%: pest or weed control at 31 g/ha [12]
40%: Corn plant response rating (crop injury, 0 = no effect, 100 = complete kill) at 62 g/ha (corn (Zea mays))
90%: pest or weed control at 62 g/ha [7] | plant injury at 125 g/ha (soybean (Glycine max)) | plant injury at 250 g/ha (soybean (Glycine max))
98%: pest or weed control at 31 g/ha [6]
100%: plant injury at 31 g/ha [1] | plant injury at 62 g/ha [1] | plant injury at 125 g/ha [1] | plant injury at 250 g/ha [1] | pest or weed control at 31 g/ha [3] | pest or weed control at 62 g/ha [3] | pest or weed control at 125 g/ha [3] | pest or weed control at 250 g/ha [3] | pest or weed control at 31 g/ha [4] | pest or weed control at 62 g/ha [4] | pest or weed control at 125 g/ha [4] | pest or weed control at 62 g/ha [5] | pest or weed control at 62 g/ha [6] | pest or weed control at 125 g/ha [6] | pest or weed control at 31 g/ha [8] | pest or weed control at 62 g/ha [8] | pest or weed control at 125 g/ha [8] | pest or weed control at 62 g/ha [13] | pest or weed control at 125 g/ha [13] | pest or weed control at 250 g/ha [13]
